According to patent US4595678A, “N-substituted pseudo-aminosugars and pharmaceutical compositions containing same” (Takeda Chemical Industries, Ltd., priority 1982, dated 1986):

tested on: α-glucoside hydrolase (α-glucosidase); test: not given; conditions: earlier reports; cited from earlier work

| Compound | α-glucoside hydrolase suppressing / α-glucosidase inhibitory activity |
| --- | --- |
| C[C@H]1O[C@H](O[C@@H]2[C@H](O)[C@H](O)[C@@H](O[C@@H]3[C@H](O)[C@@H](O)[C@@H](O[C@@H]4[C@H](O)[C@H](O)[C@@H](O[C@H]5O[C@@H](CO)[C@H](O)[C@H](O)[C@H]5O)O[C@@H]4CO)O[C@@H]3CO)O[C@H]2CO)[C@H](O)[C@@H](O)[C@@H]1N[C@H]1C=C(CO)[C@@H](O[C@H]2O[C@H](CO)[C@H](O[C@H]3O[C@H](C)[C@@H](N[C@H]4C=C(CO)[C@@H](O)[C@H](O)[C@H]4O)[C@H](O)[C@H]3O)[C@H](O)[C@H]2O)[C@H](O)[C@H]1O (stereo in doubt) [Trestatin A] | far from being satisfactory |
| N[C@H]1C[C@](O)(CO)[C@@H](O)[C@H](O)[C@H]1O [valiolamine, 1L(1S)-(1(OH),2,4,5/1,3)-5-amino-1-hydroxymethyl-1,2,3,4-cyclohexanetetraol] | possesses α-glucosidase inhibitory activity |
| C[C@H]1O[C@H](O[C@H]2[C@H](O)[C@@H](O)[C@@H](O[C@H]3[C@H](O)[C@@H](O)C(O)O[C@@H]3CO)O[C@@H]2CO)[C@H](O)[C@@H](O)[C@@H]1N[C@H]1C=C(CO)[C@@H](O)[C@H](O)[C@H]1O (stereo partly shown) [Acarbose] | far from being satisfactory |
| C[C@H]1O[C@H](O[C@H]2[C@H](O)[C@@H](O)[C@@H](O[C@H]3[C@H](O)[C@@H](O)[C@@H](O[C@H]4[C@H](O)[C@@H](O)[C@@H](O[C@H]5O[C@H](CO)[C@@H](O)[C@H](O)[C@H]5O)O[C@@H]4CO)O[C@@H]3CO)O[C@@H]2CO)[C@H](O)[C@@H](O)[C@@H]1N[C@H]1C=C(CO)[C@@H](O[C@H]2O[C@H](CO)[C@@H](O[C@H]3O[C@H](C)[C@@H](NC4C=C(CO)[C@@H](O[C@H]5O[C@H](CO)[C@@H](O[C@H]6O[C@H](C)[C@@H](NC7C=C(CO)[C@@H](O)[C@H](O)[C@H]7O)[C@H](O)[C@H]6O)[C@H](O)[C@H]5O)[C@H](O)[C@H]4O)[C@H](O)[C@H]3O)[C@H](O)[C@H]2O)[C@H](O)[C@H]1O (stereo partly shown) [Trestatin C] | far from being satisfactory |
| N[C@H]1C=C(CO)[C@@H](O)[C@H](O)[C@H]1O [valienamine] | possesses an action of suppressing the function of α-glucoside hydrolase |
| C[C@H]1O[C@H](O[C@@H]2[C@H](O)[C@@H](O)[C@@H](O[C@@H]3[C@H](O)[C@@H](O)[C@@H](O[C@@H]4[C@H](O)[C@H](O)[C@@H](O[C@H]5O[C@H](CO)[C@H](O)[C@H](O)[C@H]5O)O[C@@H]4CO)O[C@@H]3CO)O[C@H]2CO)[C@@H](O)[C@@H](O)[C@@H]1N[C@@H]1C=C(CO)[C@@H](O)[C@@H](O)[C@@H]1O (stereo in doubt) [Trestatin B] | far from being satisfactory |

tested on: α-glucoside hydrolase (α-glucosidase); test: α-glucoside hydrolase / α-glucosidase inhibitory activity, in words; assay type: biochemical; conditions: found by the inventors

| Compound | α-glucoside hydrolase suppressing / α-glucosidase inhibitory activity |
| --- | --- |
| N[C@H]1C[C@H](CO)[C@@H](O)[C@H](O)[C@H]1O [validamine] | possesses a highly valuable action of suppressing the function of α-glucoside hydrolase |
